Assay results from patent US20250186600A1, “EXCIPIENT COMPOUNDS FOR PROTEIN FORMULATIONS” (Comera Life Sciences, Inc., priority 2020, published 2025).
Values joined by “and” are separate entries in the source; they are usually repeats but may differ in a detail not shown here. Equal entries are not always repeated. Values belong to the molecule of their own block, whether it stands above or below them.

Assays:
[1] = tested on: bovine gamma globulin (BGG); experiment: Normalized viscosity of BGG with caffeine and a secondary excipient (Example 40); type: physicochemical; settings: BGG about 280 mg/mL, 20 mM histidine pH 6, 25° C.
BGG = settings: Table 15; versus 130.6 cP with no excipient
bevacizumab (AVASTIN®) = experiment: Viscosity of AVASTIN with caffeine, microVisc (Example 39); type: physicochemical; settings: for % Viscosity Reduction from Excipient: 10 mg/mL caffeine vs no excipient; for Viscosity with 10 mg/mL added caffeine excipient: 10 mg/mL caffeine, 25 mM histidine HCl
Experimental: Viscosity was measured by RheoSense microVisc and concentration was determined by absorbance at 280 nm (extinction coefficient, 1.605 mL/mg). […].

[2] = molecular target: T1, PEGylated BSA with 1 PEG chain per BSA molecule (Bos taurus, UniProt P02769); experiment: Viscosity of PEGylated BSA with 1 PEG chain per BSA molecule (Example 16); type: physicochemical; settings: Table 8; versus 228.6 cP with no excipient
T1 construct: purchased Aldrich A7906
Experimental: To a beaker was added 200 mL of a phosphate buffered saline (Aldrich Cat. #P4417) and 4 g of BSA (Aldrich Cat. #A7906) and mixed with a magnetic bar. Next 400 mg of methoxy polyethylene glycol maleimide, MW=5,000, (Aldrich Cat. #63187) was added. The reaction mixture was allowed to react overnight at room temperature. The following day, 20 drops of HCl 0.1 M were added to stop the reaction. […] The reaction mixture was placed in an Amicon centrifuge tube with a molecular weight cutoff (MWCO) of 30 kDa and concentrated to a few milliliters. Next the sample was diluted 20 times with a histidine buffer, 50 mM at a pH of approximately 6, followed by concentrating until a high viscosity fluid was obtained.
The viscometer measurements were completed at ambient temperature.

[3] = molecular target: PEGylated lysozyme with multiple PEG chains per lysozyme molecule (Gallus gallus, UniProt P00698); settings: Table 10
ustekinumab [4] = experiment: Thermal stability at 65 deg C., increase in percent monomer by SE-HPLC (Example 55); type: physicochemical; settings: excipient 5 mg/mL, ustekinumab 1 mg/mL, 20 mM Histidine pH 6.0, 65 deg C., 120 min
Text: Therapeutic proteins are frequently subjected to fluctuations in temperatures, which may lead to changes in their tertiary and secondary structural elements. This leads to aggregation of the protein and a decrease in the active native species.

omalizumab [5] = experiment: Freeze/thaw stress (6 cycles), monomer by SE-HPLC (Example 57); type: physicochemical; settings: excipient 100 mM, omalizumab 2 mg/mL, 20 mM Histidine pH 6.0, freeze (−80° C.)/thaw
Experimental: Therapeutic proteins are frequently kept at low temperatures to improve their kinetic stability and minimize structural perturbations that could lead to the aggregation of the protein and a decrease in the active native species. In certain cases, this might be done by freezing the formulation until use. However, the low temperatures, concentration gradients, and ice formation during repeated freezing and thawing can stress the protein. […] The formulations were then aliquoted into 0.5 mL cryovials and frozen at −80° C. for 120 min. The samples were then thawed using a water bath kept at room temperature.

ustekinumab [6] = experiment: Accelerated aging at 40° C. for 4 weeks, monomer by SE-HPLC (Example 58); type: physicochemical; settings: excipient 100 mM, ustekinumab 2 mg/mL, 20 mM Histidine pH 6.0, 40° C. for 4 weeks
Experimental: 1 mL of each sample was aliquoted into 2 mL glass vials (West Pharmaceutical services, PA) and incubated at 40° C. for 4 weeks. The aliquots were withdrawn after 0, 1, 2, 3, and 4 weeks.

nivolumab = experiment: Thermal stability of nivolumab at 40 C for 4 weeks, SE-HPLC (Example 69); settings: Excipient added at 400 mM; nivolumab 10 mg/ml, 5 mM phosphate pH 7.5, 40 C for 4 weeks
pembrolizumab = experiment: Thermal stability of pembrolizumab at 40 C for 4 weeks, SE-HPLC (Example 70); settings: Excipient added at 400 mM; pembrolizumab 10 mg/ml, 5 mM phosphate pH 7.5, 40 C for 4 weeks
omalizumab [7] = experiment: DLS viscosity of concentrated omalizumab with nicotinamide mononucleotide and itaconic acid (Example 52); type: physicochemical; settings: 20 mM His HCl pH 6, excipient stock 1 M or solubility limit
[8] = tested on: bovine gamma globulin (BGG); experiment: Viscosity of 280 mg/mL BGG formulations with excipient compounds, cone and plate viscometer (Examples 1, 2, 4-6); type: physicochemical

Sequence of PEGylated lysozyme with multiple PEG chains per lysozyme molecule (P00698 19-147): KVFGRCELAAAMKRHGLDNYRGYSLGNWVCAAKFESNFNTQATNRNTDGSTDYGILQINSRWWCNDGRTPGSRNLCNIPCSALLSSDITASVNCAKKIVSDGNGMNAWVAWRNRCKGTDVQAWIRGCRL
T1 sequence (P02769 25-607): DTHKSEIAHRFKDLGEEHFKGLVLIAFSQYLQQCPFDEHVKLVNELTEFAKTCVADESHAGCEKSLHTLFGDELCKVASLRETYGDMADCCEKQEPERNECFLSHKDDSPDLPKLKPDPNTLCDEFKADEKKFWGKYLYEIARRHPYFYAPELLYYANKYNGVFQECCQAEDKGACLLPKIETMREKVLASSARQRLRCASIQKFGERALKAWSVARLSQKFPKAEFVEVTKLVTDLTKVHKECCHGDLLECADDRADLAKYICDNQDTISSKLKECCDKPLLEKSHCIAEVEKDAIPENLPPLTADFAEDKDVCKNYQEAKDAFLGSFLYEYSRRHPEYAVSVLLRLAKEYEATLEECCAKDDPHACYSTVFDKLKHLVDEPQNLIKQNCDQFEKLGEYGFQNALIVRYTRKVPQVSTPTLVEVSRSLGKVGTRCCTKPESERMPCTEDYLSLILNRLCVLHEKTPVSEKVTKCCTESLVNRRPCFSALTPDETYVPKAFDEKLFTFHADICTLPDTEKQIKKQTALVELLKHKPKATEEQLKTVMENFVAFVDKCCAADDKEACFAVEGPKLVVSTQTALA

Molecule: N=C(N)NCCC[C@H](N)C(=O)O [Arginine, reference compound]
- Normalized Viscosity ([1]; Excipient A caffeine 15 mg/mL + Excipient B 20 mg/mL): 0.63
- Viscosity Reduction (%) (BGG): 41%

Molecule: Cn1c(=O)c2c(ncn2C)n(C)c1=O [Caffeine]
- % Viscosity Reduction from Excipient (bevacizumab (AVASTIN®); AVASTIN 190 mg/mL): 36%
- Viscosity with 10 mg/mL added caffeine excipient (bevacizumab (AVASTIN®); AVASTIN 190 mg/mL): 13 cP
- % Viscosity Reduction from Excipient (bevacizumab (AVASTIN®); AVASTIN 213 mg/mL): 73%
- Viscosity with 10 mg/mL added caffeine excipient (bevacizumab (AVASTIN®); AVASTIN 213 mg/mL): 22 cP
- % Viscosity Reduction from Excipient (bevacizumab (AVASTIN®); AVASTIN 266 mg/mL): 62%
- Viscosity with 10 mg/mL added caffeine excipient (bevacizumab (AVASTIN®); AVASTIN 266 mg/mL): 113 cP
- Normalized Viscosity ([1]; Excipient A caffeine 15 mg/mL, no Excipient B): 0.77
- Viscosity Reduction (%) (BGG): 33%

Molecule: CC(=O)[O-].[K+] [K acetate, potassium acetate]
- Viscosity Reduction [2]: 60%
- Viscosity (cP) ([3]; PEGylated lysozyme, 500 s-1, ambient temperature, excipient 20 mg/mL): 22.6 cP
- Viscosity Reduction ([3]; versus 24.6 cP with no excipient): 8%

Molecule: OC[C@H]1O[C@@](CO)(OC[C@@]2(O[C@H]3O[C@H](CO)[C@@H](O)[C@H](O)[C@H]3O)O[C@H](CO)[C@@H](O)[C@@H]2O)[C@@H](O)[C@@H]1O [Kestose]
- % increase in monomer content vs. control (ustekinumab [4]): 5.9%
- % increase in monomer content vs. control (omalizumab [5]): 71.18%
- % increase in monomer content vs. control (ustekinumab [6]): 8.4%
- % Monomer remaining (nivolumab): 92.4%
- % Monomer remaining (pembrolizumab): 82.6%

- DLS Viscosity, Replicate 1 (omalizumab [7]): 33.6 cP
- DLS Viscosity, Replicate 2 (omalizumab [7]): 22.2 cP
Molecule: NC(=O)c1ccc[n+]([C@@H]2O[C@H](COP(=O)([O-])O)[C@@H](O)[C@H]2O)c1 [Nicotinamide mononucleotide]

Molecule: O=C([O-])c1ccccc1O.[Na+] [Sodium salicylate]
- Viscosity Reduction [8]: 28% and 34%
- Viscosity (cP) ([8]; pH 6): 57 cP and 52 cP

- Viscosity Reduction [2]: 34%
Molecule: Alpha-Cyclodextrin sulfated Na salt
